Data from patent US7229651B2, “Dietary supplements containing natural ingredients” (Melaleuca, Inc., priority 1998, dated 2007).

Experiments:
[1] = test system: in vivo platelet activity (acute platelet thrombus formation); conditions: cited from earlier work
[2] = test system: platelet activity; conditions: aspirin, blood aggregometry test; cited from earlier work
[3] = test system: LDL cholesterol; assay: Copper ion catalysed LDL cholesterol oxidation (conjugated dienes at 234 nm, lag time); type: biochemical, human
From the text: LDL cholesterol oxidation or protection therefrom can be determined by several methods. Kleinveld et al., Clin. Chem., 38(10):2066–2072 (1992) describes the methods for the LDL oxidation experiments described and used herein. A preferred way to practice the method encompasses extracting LDL cholesterol from whole blood samples collected from a subject using standard techniques. The extracted LDL cholesterol is divided into control and experimental samples. LDL oxidation is catalyzed by adding a copper ion solution to each LDL cholesterol sample. Copper ions are known to catalyze and enhance LDL cholesterol oxidation. […]
Copper ions accelerate the production of conjugated dienes in LDL cholesterol oxidation, which absorb light at 234 nm. Therefore, LDL cholesterol oxidation is monitored by following the increase in absorbance at 234 nm as a function of time as shown in FIG. 6. […]
As described above, LDL cholesterol oxidation is commonly measured by observing absorbance at 234 nm (Abs234nm) as a function of time while the LDL cholesterol is exposed to oxidative conditions. The antioxidant effectiveness of PROVEXCV™ and other substances was determined.
LDL cholesterol was prepared from human volunteer blood samples. […] To each sample a measured amount of copper ions was added.
After mixing, the Abs234nm of each solution was then monitored as a function of time. […]

Compound | dogs with renewed CFR's on epinephrine infusion ([1]; after abolishment of CFR's with 5–10 mg/kg of aspirin) | effect on CFR's ([1]; aspirin, Folts model, literature) | dosage at which platelet activity is inhibited ([1]; aspirin, known value) [mg/kg] | reactivation of inhibited platelet activity on epinephrine ([1]; aspirin, epinephrine 0.2 μg/Kg/min intravenously) | decrease of platelet activity, collagen stimulated [2] | lag time before LDL oxidation begins vs native LDL ([3]; Vitamin E 5.3 mg/L, CuCl2 5 μmol/L, 30° C., FIG. 8) | time LDL cholesterol protected from oxidation (lag time) ([3]; vitamin E at the described concentration, copper ions)
CC(=O)Oc1ccccc1C(=O)O [aspirin] | 50–60 % of dogs | eliminates CFR's | 5 | can be reactivated | 30–40% |  | 
vitamin E |  |  |  |  |  | delayed | about 95 minutes
